Experiments:
[1] = test system: B. cereus DSM 4312; test: Disc diffusion assay; assay type: cell-based, Bacillus Cereus
Procedure: Therefore, the pathogen bacterial flora and the opportunistic agents may be taken into consideration both in the management of cancer patients and in individual susceptibility to cancer. Indeed, dual acting factors with antimicrobial and antiproliferative potentials can result in improved therapeutic efficacy for cancer cell patients or reduced cancer predisposition. […]. In this study, 10 microbial cultures of this part, belonging to ten types of bacterial were used. The culture was grown in Mueller–Hinton Broth (Merck) for all the bacterial strains at 36 °C. Antimicrobial test was carried out by using disc-diffusion assay utilizing 100 µL of suspension with 10^8 CFU/mL of bacteria and 10^6 CFU/mL of yeast spread on Nutrient Agar and Potato Dextrose Agar, respectively. Also, the blank disc (Oxoid = 6 mm in diameter) was impregnated with 20 µL of each substance (105 µg/disc) and placed on the inoculated agar. Negative controls ([…]) were prepared using the same solvent (water) employed to dissolve each substance. […]. The inoculated plate was incubated at 36 °C for clinical bacterial strains. Antimicrobial activities were evaluated by obtaining the zone of inhibitory effect against the test organisms.

[2] = test system: KpnI and BamHI; test: Inhibition of restriction endonucleases activity (pTOLT plasmid digestion); assay type: biochemical
Procedure: Fig. S12. […] Following 4 h 37°C digestion of the 14µL with 10U KpnI and BamHI, these digestion products were resolved with 1.5% agarose gel containing ethidium bromide. Lane 1: enzyme + DNA + complex 4, Lane 2: enzyme + DNA + complex 3, Lane 3: enzyme + DNA + complex 2, Lane 4: Positive control (enzyme + DNA), Lane 5: Negative control (plasmid DNA + water); lane 6: DNA marker (1Kb).

[3] = test system: HT29 cells; test: TUNEL assay; assay type: cell-based, human
Procedure: […]. We have evaluated the apoptotic effect of the molecules on HT29 cells utilizing the TUNEL method as an immunohistological study to reveal their mechanism of action on cells. The apoptotic activity of the Ag(I) compounds was examined in human colon cancer cells, HT29. […]. […] […].
Figure 8 Phase-contrast and Fluorescence and image of the HT29 cancer cell line examined by TUNEL assay. […].
In situ finding of apoptosis was conducted utilizing a TUNEL method kit conforming to the manufacturer’s mechanism. HT29 cells (30.000 cells/chamber slide section) were conveyed in poly-L-lysine covered chamber slide. […]. Finally, slide was gently washed with cold DPBS and added 4 % paraformaldehyde for fixation for 60 min at room temperature. Following incubation, the cells were blocked with freshly prepared 3 % H2O2 in methanol at room temperature. Then, the cells were exposed to permeabilized solution (0.1 % sodium citrate and 0.1 % Triton X-100) for 2 minutes on ice. At this stage in order to prepare a DNase I enzyme treated as positive control, 10 μl of DNase-I and 90 μl its buffer was added to slide and incubated at room temperature for 10 minutes. The compotent cell was transferred into TUNEL reaction mixture (50 μL/section) involving a TdT and fluorescein-dUTP mix for 1 h at 37 °C, in a humidified phase and protected from light. In the end of the process, the positive cell nuclei obtained a green fluorescent signal which visualized by a Leica fluorescent microscope.

[4] = test system: HeLa, HT29, C6 and Vero cells; test: BrdU Cell Proliferation Assay, range over the cell lines; assay type: cell-based
Source text: (§1) The antiproliferative activities of Ag(I) molecules and the starting molecules of the parent molecules, N-bishydeten and [Ag(CN)2]^− compound, on cells, were monitored utilizing by the BrdU Cell Proliferation Assay (BCPA) (Fig. 6).
(§2) The antiproliferative activity of the 2, 3, 4, [Ag(CN)2]^− and 5FU against various cell lines (HeLa ATCC CCL-2, C6 cells ATCC CCL-107, HT29 ATCC HTB-38, and Vero ATCC CCL-81) were preserved and maintained in Dulbecco’s modified eagle’s medium, supplemented with %2 antibiotic (Streptomycin-Penicillin) solution and 10% fetal bovine serum.
(§3) The cell suspension including 5×10^3 cells in 100 µL was supplied into the well cell plates (96-well cell). The therapies of these cells with 2, 3, 4 and [Ag(CN)2]^− in DMSO (max 0.1% DMSO) and 5-Florouracil (5 FU) molecule in DMSO (max 0.1% DMSO) separately at concentration 0.25, 0.50, 1.00, 1.50, 2.00, 2.50, 3.75, and 5.00 µg/mL were carried out. The last volume was adapted to 200 µL by mixture and DMEM and also incubated for 24 h at 37°C with 5% CO2. The antiproliferative activities of the 2, 3, 4 and [Ag(CN)2]^− were determined with using BrdU Cell proliferation ELISA Kit conforming to manufacturer’s assay.
(§4) IC50 values the concentration of a factor which required for other method of in vitro.

[5] = test system: HT29; test: BrdU Cell Proliferation Assay (BCPA); assay type: cell-based, human
Source text: as §1, §2, §3, §4

[6] = test system: C6, HeLa, and HT29 cells; test: DNA laddering (internucleosomal DNA fragmentation); assay type: cell-based
Procedure: Here, appearances of apoptotic morphology and DNA fragmentation may be a result of the activation of the extrinsic apoptotic pathways, including Ca^2+ dependent endonucleases. Apoptosis assay is determined by controlling cell death which included cleavage of DNA molecule into regular fragments. In this part, we observed that our molecules could act through containing apoptosis on some cells. More studies were conducted to obtain the antiproliferative and apoptotic potentials of Ag molecules which are consistent with this work[70],[75],[75],[79],[80].
By growing C6, HeLa, and HT29 cells were incubated with the molecules at 37 °C for overnight, DNA molecule was isolated in this part, and DNA fragmentation was visualized by agarose gel electrophoresis. […] A-HT29: 1, DNA standard; 2, HT29 Control; 3, HT29 + 2; 4, HT29 + 3; 5, HT29 + 4. B-C6: 1, DNA standard; 2, C6 + 2; 3, C6 + 3; 4, C6 + 4; 5, C6 Control. C-HeLa: 1, DNA standard; 2, HeLa + 2; 3, HeLa + 3; 4, HeLa + 4; 5, HeLa Control.
. Treated cell was harvested using a plastic scraper, and these fixed with 70 % ethanol, and also incubated for 48 hours. The ethanol amount was removed by centrifugation and air drying. The cell pellet was resuspended in 55 μL phosphate-citrate buffer (consisting of 192 parts of 0.2 M Na2HPO4 and 8 parts of 0.1 M citric acid, pH 7.8), and incubated at 37°C for 30 min in a shaker incubator. A 45 μL of supernatant was transferred to a microsantrifuge tube, mixed with 5 μL 0.25% Tween20 solution and 5 μL RNase A enzyme solution and also incubated for 30 min in a shaker incubator. […]

[7] = test system: CT-DNA; test: Ethidium bromide exchange (fluorescence quenching) study; assay type: binding, calf
Procedure: Fig. S13. The emission spectra of EB-bound (a) DNA solutions in the absence and presence of increasing concentrations of 2, 3, and 4 25 μM (b), 50 μM (c), and 75 μM (d). [EB]=10.0 μM (e), [DNA] 50.0 μM. […] (µM) for determining KSV.

Substance	inhibition zones, B. cereus DSM 4312 [1] [mm]	effect on restriction endonucleases activity (KpnI and BamHI digestion of pTOLT plasmid DNA) [2]	apoptosis by TUNEL [3]	IC50 [4] [nM]	IC50 [5] [nM]	DNA fragmentation (DNA laddering) [6]	KSV (Stern–Volmer quenching constant, EB-DNA) [7]
[Cu(N-bishydeten)Ag3(CN)5] [Complex 2]	30 ± 0.58	caused the formation of two DNA bands (Lane 3) corresponding to the supercoiled and nicked DNA	significantly triggered apoptosis	870 to 3640	870 ± 90	induced the organization of DNA fragmentation	5.0 ± 0.32 × 10^3 M^−1
[Zn(N-bishydeten)Ag3(CN)5] [Complex 3]	34 ± 0.0	failed to inhibit the restriction endonucleases activity	significantly triggered apoptosis	2370 to 3340	2370 ± 320	induced the organization of DNA fragmentation	13.7 ± 0.41 × 10^3 M^−1
[Cd(N-bishydeten)]4[Ag(CN)2]8[Ag(CN)]2 [Complex 4]	36 ± 1.0	failed to inhibit the restriction endonucleases activity	significantly triggered apoptosis	480 to 630	480 ± 80	induced the organization of DNA fragmentation	1.1 ± 0.12 × 10^3 M^−1
